Here are results for 3 molecules from ChEMBL document CHEMBL3112492, “Antiprotozoan lead discovery by aligning dry and wet screening: prediction, synthesis, and biological assay of novel quinoxalinones” (Bioorg Med Chem, 2014).

Active and inactive are the calls of the source. The calls are words filed in the database; no cut-off is given here. Where only a bound is given, the exact number is not on record here.

For one data set, the system named is Leishmania braziliensis. The data set can be described thus: Antiprotozoal activity against metacyclic promastigote stage of Leishmania braziliensis MHOM/PE/95/LQ2 assessed as growth inhibition after 72 hrs by Alamar Blue assay. In kind it is functional, organism-based.
The subject of data set [1] is Trichomonas vaginalis. The data set can be described thus: Trichomonastatic activity against Trichomonas vaginalis JH31A at 1 ug/ml after 48 hrs by Neubauer chamber analysis relative to control. It counts as functional.
A short description of data set [2]: Inhibition of ferriprotoporphyrin-9 biocrystallization by micro-ELISA. On the technique in general: An ELISA detects its analyte on a solid surface through an enzyme-linked reagent.
In data set [3] the test system is Trichomonas vaginalis. As to the kind of experiment: Trichomonastatic activity against Trichomonas vaginalis JH31A at 10 ug/ml after 24 hrs by Neubauer chamber analysis relative to control. In kind it is functional.
In the next data set the test system is Acanthamoeba castellanii. The data set can be described thus: Antiprotozoal activity against trophozoite stage of Acanthamoeba castellanii Neff ATCC 30010 after 72 to 120 hrs by Alamar Blue assay. In kind it is functional. Particulars: Acanthamoeba castellanii str. Neff. For orientation: Resazurin is reduced to fluorescent resorufin, in cell work by metabolically active cells.

In data set [4] the test system is Trichomonas vaginalis. As to the kind of experiment: Trichomonastatic activity against Trichomonas vaginalis JH31A at 10 ug/ml after 48 hrs by Neubauer chamber analysis relative to control. In kind it is functional.
The test system of data set [5] is Trichomonas vaginalis. The data set can be described thus: Trichomonastatic activity against Trichomonas vaginalis JH31A at 1 ug/ml after 24 hrs by Neubauer chamber analysis relative to control. It counts as functional.
The subject of data set [6] is Toxoplasma gondii. The data set can be described thus: Antiprotozoal activity against tachyzoite stage of Toxoplasma gondii RH assessed as viability at 100 uM after 4 hrs by trypan blue exclusion assay relative to control. In kind it is functional.
For data set [7], the system named is Trichomonas vaginalis. As to the kind of experiment: Trichomonastatic activity against Trichomonas vaginalis JH31A at 100 ug/ml after 24 hrs by Neubauer chamber analysis relative to control. In kind it is functional.
Data set [8] deals with Toxoplasma gondii. The data set can be described thus: Antiprotozoal activity against tachyzoite stage of Toxoplasma gondii RH assessed as viability at 500 uM after 4 hrs by trypan blue exclusion assay relative to control. In kind it is functional.
Data set [9] has as its system Toxoplasma gondii. As to the kind of experiment: Antiprotozoal activity against tachyzoite stage of Toxoplasma gondii RH assessed as viability at 200 uM after 4 hrs by trypan blue exclusion assay relative to control. In kind it is functional.
For the next data set, the system named is Plasmodium falciparum. The data set can be described thus: Antimalarial activity against intraerythrocytic asexual stage of Plasmodium falciparum 3D7 assessed as inhibition of [G-3H]-hypoxanthine uptake by semiautomated microdilution method. In kind it is functional, organism-based. On the technique in general: In broth dilution the organism is exposed to a series of concentrations in liquid medium.

The subject of data set [10] is Toxoplasma gondii. As to the kind of experiment: Antiprotozoal activity against tachyzoite stage of Toxoplasma gondii RH assessed as viability at 1 mM after 4 hrs by trypan blue exclusion assay relative to control. It counts as functional.
In data set [11] the test system is Trichomonas vaginalis. As to the kind of experiment: Trichomonastatic activity against Trichomonas vaginalis JH31A at 100 ug/ml after 48 hrs by Neubauer chamber analysis relative to control. In kind it is functional.
The subject of data set [12] is J774. As to the kind of experiment: Cytotoxicity against mouse J774 cells at 10 ug/mL after 24 hrs by MTT assay. Particulars: j774, 24 h. In kind it is cell-based.
The test system of data set [13] is J774. The data set can be described thus: Cytotoxicity against mouse J774 cells at 1 ug/mL after 24 hrs by MTT assay. In kind it is cell-based. Particulars: j774, 24 h.
In data set [14] the test system is Trypanosoma cruzi. The data set can be described thus: Trypanocidal activity against epimastigote stage of Trypanosoma cruzi CL Brener at 10 ug/mL after 72 hrs by beta-galactosidase reporter gene assay relative to control. It counts as functional.
Data set [15] concerns Trypanosoma cruzi. The data set can be described thus: Trypanocidal activity against epimastigote stage of Trypanosoma cruzi CL Brener at 1 ug/mL after 72 hrs by beta-galactosidase reporter gene assay relative to control. In kind it is functional.
Data set [16] has as its system J774. As to the kind of experiment: Cytotoxicity against mouse J774 cells at 100 ug/mL after 24 hrs by MTT assay. It counts as cell-based. Conditions: j774, 24 h.
Data set [17] has as its system Toxoplasma gondii. As to the kind of experiment: Antiprotozoal activity against tachyzoite stage of Toxoplasma gondii RH assessed as extrusion of cytoplasmic content by light microscopic analysis. In kind it is functional, organism-based.
The subject of data set [18] is Trypanosoma cruzi. As to the kind of experiment: Trypanocidal activity against epimastigote stage of Trypanosoma cruzi CL Brener at 100 ug/mL after 72 hrs by beta-galactosidase reporter gene assay relative to control. In kind it is functional.
Data set [19] relates to Trichomonas vaginalis. As to the kind of experiment: Trichomonacidal activity against Trichomonas vaginalis JH31A at 2 ug/ml after 48 hrs by Neubauer chamber analysis relative to control. In kind it is functional.
The subject of data set [20] is Trichomonas vaginalis. As to the kind of experiment: Trichomonacidal activity against Trichomonas vaginalis JH31A at 0.5 ug/ml after 24 hrs by Neubauer chamber analysis relative to control. It counts as functional.
In data set [21] the test system is Trichomonas vaginalis. The data set can be described thus: Trichomonacidal activity against Trichomonas vaginalis JH31A at 0.5 ug/ml after 48 hrs by Neubauer chamber analysis relative to control. In kind it is functional.
Data set [22] deals with Trichomonas vaginalis. The data set can be described thus: Trichomonacidal activity against Trichomonas vaginalis JH31A at 2 ug/ml after 24 hrs by Neubauer chamber analysis relative to control. It counts as functional.
In data set [23] the test system is Trichomonas vaginalis. As to the kind of experiment: Trichomonacidal activity against Trichomonas vaginalis JH31A at 1 ug/ml after 48 hrs by Neubauer chamber analysis relative to control. In kind it is functional.
Data set [24] relates to Trichomonas vaginalis. As to the kind of experiment: Trichomonacidal activity against Trichomonas vaginalis JH31A at 1 ug/ml after 24 hrs by Neubauer chamber analysis relative to control. It counts as functional.

A word on the IC50: it is the concentration that inhibits the measured activity by half. Take `Br.CN(C)CCCCCN1CC(=O)Nc2cc([N+](=O)[O-])ccc21`: the “growth inhibition (GI)” value with Leishmania braziliensis is “inactive”. Also, the Activity in the data set with Trichomonas vaginalis [1] was 0%; with Trichomonas vaginalis [3] it was 11.43%; in the data set on Trichomonas vaginalis [4], 14.68%; with Trichomonas vaginalis [5], 1.22%; in the data set on Toxoplasma gondii [6], 95%; in the data set on Trichomonas vaginalis [7] it was 29.39%. Moreover, the Activity in the data set with Toxoplasma gondii [8] is on record as 93%; with Toxoplasma gondii [9], 96%; in the data set with Toxoplasma gondii [10], 73%; in the data set with Trichomonas vaginalis [11], 28.33%. Moreover, the values for the IC50 (in data set [2]; in the data set with Plasmodium falciparum) were more than 2000 µg/mL and more than 10 µg/mL, respectively. Also, the result in the data set on Acanthamoeba castellanii was inactive.

Turning to `Br.O=C1CN(CCCCCN2CCCC2)c2ccc([N+](=O)[O-])cc2N1`, the “growth inhibition (GI)” value in the data set on Leishmania braziliensis was “inactive”. The Activity with J774 [12] was determined as 0%; in the data set with Trichomonas vaginalis [1] it was 0%; in the data set with Trichomonas vaginalis [3], 21.02%; in the data set on Trichomonas vaginalis [4], 1.64%; in the data set on Trichomonas vaginalis [5], 3.53%; in the data set with Toxoplasma gondii [6], 91%. Moreover, the Activity worked out at 0% in the data set with J774 [13]; 5.35% with Trypanosoma cruzi [14]; 4.38% in the data set on Trypanosoma cruzi [15]; 75.61% with Trichomonas vaginalis [7]; 0% in the data set with J774 [16]; 0% in the data set on Toxoplasma gondii [8]. In addition, the Activity was determined as 85% with Toxoplasma gondii [9], 0% in the data set on Toxoplasma gondii [10], 34.26% in the data set with Trichomonas vaginalis [11] and 83.54% in the data set on Trypanosoma cruzi [18]. Further, the 50% inhibitory concentration (IC50) was more than 2000 µg/mL in data set [2] and more than 10 µg/mL in the data set with Plasmodium falciparum. In addition, the outcome in the data set with Acanthamoeba castellanii was inactive. Besides, in the data set on Toxoplasma gondii [17], the outcome was Active.

For the molecule `Cc1ncc([N+](=O)[O-])n1CCO` [METRONIDAZOLE], the Activity is 100% with Trichomonas vaginalis [19]; 98% in the data set with Trichomonas vaginalis [20]; 99.5% with Trichomonas vaginalis [21]; 100% with Trichomonas vaginalis [22]; 100% in the data set with Trichomonas vaginalis [23]; 99.1% with Trichomonas vaginalis [24].
